Literature values, collected in US9877951B2, “Method for treating dementia” (College of William and Mary, priority 2015, dated 2018).
Read-outs that look alike come from different tables or passages of the source.

Tests used:
[1] = storage
[2] = not given; remark: listed apart in the source
[3] = for ability of DCS to facilitate extinction: DCS for five consecutive days
[4] = chronic dosing at typical tuberculosis doses
[5] = system: Mycobacterium tuberculosis strains; conditions: typical Mycobacterium tuberculosis strains

For CC(=O)C=C(C)N[C@@H]1CONC1=O [(R)-4-[(1-methyl-3-oxo-1-butenyl)-amino]-3-isoxazolidinone], the “stability relative to DCS” value [1] is listed as “enhanced stability relative to DCS”.

For N[C@@H]1CON=C1O [DCS, 3-Isoxazolidinone, 4-amino-, (4R)-(9Cl)], the “benefit on Alzheimer's Disease” value (100 mg daily administration (Tsai et al.)) is listed as “positive benefit”, the “benefit for treatment of Alzheimer's Disease” value (up to 50 mg daily dosing, 410-patient trial (Fakouhi et al.)) is listed as “did not have a significant benefit” and the “serum concentrations generally maintained” value ([2]; dose of 500 mg/day) is listed as 25000 to 30000 ng/mL. For the same compound, the “time of peak serum concentrations after dosing” value ([2]; oral capsules) was 3 to 8 h, the peak serum concentrations ([2]; sub-antimicrobial doses (less than or equal to 2 mg/kg)) was “less than or equal to 5 μg/mL” and the “ability of DCS to facilitate extinction learning” value ([3]; rats exposed to DCS for 15 consecutive days) was “eliminated”. For the same compound, the “ability of DCS to facilitate extinction” value ([3]; rats, extinction paradigm 28 days later) was “restored”, the “ability of DCS to facilitate extinction” value ([3]; rats, extinction paradigm two days later) was “significantly decreased” and the recorded side effects [4] was “drowsiness, depression, headache, confusion, tremor, vertigo, and memory difficulties, paresthesias, and seizure”. The “minimum inhibitory concentrations (MIC) in vitro” value [5] was 6 to 25 µg/mL.

In the case of CN(C)CCCN1c2ccccc2CCc2ccccc21 [imipramine], the “effect on ability of DCS to facilitate extinction learning” value ([3]; rats, daily administration of imipramine for 15 days) is listed as “blocked the ability of DCS to facilitate extinction learning”.
